By IC50 is commonly meant the concentration at which inhibition is half-maximal. Low values mean greater potency in that assay, high ones weaker potency in that assay.

The target in the experiment is his6-Siah1 (aa 81-282) (Homo sapiens, UniProt Q8IUQ4). Kind of experiment: inhibitors of Siah-1 ligand interaction – biochemical, TR-FRET, dose response (AID 2141). A general note: Time-resolved FRET reads energy transfer from a long-lived donor to a nearby acceptor.
Chain of his6-Siah1 (aa 81-282) (Q8IUQ4 whole entry, looked up, the tested form may be a part): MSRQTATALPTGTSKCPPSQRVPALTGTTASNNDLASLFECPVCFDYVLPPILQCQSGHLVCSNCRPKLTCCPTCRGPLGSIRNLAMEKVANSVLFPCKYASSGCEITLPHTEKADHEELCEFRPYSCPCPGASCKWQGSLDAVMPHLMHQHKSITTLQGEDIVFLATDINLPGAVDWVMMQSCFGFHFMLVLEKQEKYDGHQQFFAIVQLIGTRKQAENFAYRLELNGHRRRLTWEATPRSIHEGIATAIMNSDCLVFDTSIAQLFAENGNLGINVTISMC

Molecule `C[N+]1(CCNC(=O)CN=O)CCCCC1` displayed an IC50 of 130 µM.

Regarding `CCOC(=O)C1(C)CC(=Nc2ccc(O)cc2)C(=O)N1c1ccc(O)cc1` (stereo not given), the concentration for half-maximal inhibition (IC50) is 50.7 µM. The result for `O=C(Nc1ccc(Br)cc1)c1ccc(-n2c(O)c3c(c2O)CC=CC3)cc1` [4-[1,3-bis(oxidanylidene)-3a,4,7,7a-tetrahydroisoindol-2-yl]-N-(4-bromophenyl)benzamide] reads 4.27 µM; that for `CC1(C)OC(C)(C)C(=CNc2ccc(O)cc2)C1=O` [4-[(4-hydroxyanilino)methylene]-2,2,5,5-tetramethyldihydro-3(2H)-furanone], 2.93 µM; that for `CC(C)(C)c1cc(-c2cs/c(=N\c3ccccc3)n2Cc2ccc(C(=O)O)cc2)cc(C(C)(C)C)c1O` [4-[[4-(3,5-ditert-butyl-4-oxidanyl-phenyl)-2-phenylazanyl-1,3-thiazol-3-ium-3-yl]methyl]benzoic acid;bromide], 6.69 µM.

For the origin of these results see BindingDB's records for doi:10.7270/Q2V1236D (Burnham Center For Chemical Genomics, 2009).
